Experimental data: patent US20110178072A1, “STEREOSPECIFICITY OF METHYLSULFINYL REDUCTION” (priority 2008, published 2011)

Legend:
SK-Hep1 cells = experiment: Growth and morphology of SK-Hep1 cells in Met-free DMEM supplemented with Met or Met sulfoxides (MTS proliferation assay, microscopy); format: cell-based, human; settings: for Growth of SK-Hep1 cells: Met-free DMEM supplemented with 0.1 mM of the compound; for Morphology of SK-Hep1 cells: after 96 hours on medium with 0.1 mM of the compound
Method: Cell culture—SK-Hep1 (ATCC: HTB-52™) and fRMsr-transfected SK-Hep1 cells were cultured in DMEM or Met-free DMEM (GIBCO) media, supplemented with 0.1 mM Met, 0.1 mM Met-RO, 0.1 mM Met-SO, or 0.1 mM Met-RSO. […] Thus, 0.1 mM Met sulfoxides were used in the experiments described below. Cell culture experiments, with the exception of a proliferation assay, were carried out in 6-well plates, and cells were maintained at 37° C. in a 5% CO2 atmosphere. Proliferation Assay—Cell growth was quantified using colorimetric MTS assay (Promega). Cells in regular DMEM medium were plated in 96-well plates at 5×10^3 cells/well, washed with PBS, and specialized DMEM media were added that contained Met, Met-SO, Met-RO, or Met-RSO 24 hours after plating. To assay for cell proliferation, a tetrazolium compound [3-(4,5-dimethylthiazol-2-yl)-5-(3-carboxymethoxyphenyl)-2-(4-sulfophenyl)-2H-tetrazolium, inner salt; MTS] and an electron coupling reagent (phenazine methosulfate; PMS) were mixed according to the manufacturer's protocol and then 20 μL of the mixture were added to 100 μL of phenol red-excluded media that further replaced cell culture media. After 90 minutes of incubation at 37° C. in the atmosphere of 5% CO2, cell proliferation was measured at indicated time periods from 0 to 96 hours at 450 nm in a plate reader. Direct counting of viable cells using 0.2% trypan blue was done in 6-well plates. Microscopy—A Nikon TE-300 Widefield Microscope was used to prepare images of SK-Hep1 cells grown on different Met and Met sulfoxide media. Microscopy analyses were carried out in the University of Nebraska Microscopy Core Facility.

CBS = experiment: Western blot analysis of CBS in SK-Hep1 cells grown on Met and Met sulfoxide media; format: cell-based, human; settings: 0.1 mM
Method: Analysis of SK-Hep1 and fRMsr-transfected SK-Hep1 cells—SK-Hep1 and fRMsr-transfected SK-Hep1 cells were plated in 6-well plates at 7.5×10^4 cells/well in regular DMEM medium. The medium was changed to Met-free DMEM supplemented with either Met or individual Met sulfoxides at 24 hours after plating. Cells were then collected every 24 hours until 96 hours. Protein concentration was measured by the Bradford assay and the samples were probed by standard immunoblot assays with polyclonal MsrA (kindly provided by Bertrand Friguet), cystathionine beta synthase (CBS) (kindly provided by Ruma Banerjee), and activating transcription factor 3 (ATF3) (Santa Cruz Biotechnology) antibodies.

yeast fRMsr = target: T1, yeast fRMsr (Saccharomyces cerevisiae, UniProt P36088); experiment: Activity assay of purified recombinant yeast fRMsr towards free Met sulfoxides (HPLC, OPA derivatization); format: biochemical, S. cerevisiae; settings: for Activity of recombinant yeast fRMsr protein towards the substrate: recombinant His-tagged yeast fRMsr; for Specific activity for each Met-O: yfRMsr (yeast free methionine R-sulfoxide reductase), ± standard deviations from 3 independent experiments
T1 construct: His-tag (C); made in house; host or cells: E. coli BL21 (DE3), pET21b
T1 sequence (P36088 1-180): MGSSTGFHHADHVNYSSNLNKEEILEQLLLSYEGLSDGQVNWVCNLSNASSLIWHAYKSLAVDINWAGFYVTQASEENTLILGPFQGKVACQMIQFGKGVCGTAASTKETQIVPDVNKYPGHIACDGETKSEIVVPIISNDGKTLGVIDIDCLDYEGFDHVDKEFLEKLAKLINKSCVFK
Description: Cloning and expression of yeast fRMsr—Characterization of S. cerevisiae fRMsr (YKL069W) is described in Le, D. T., et al. (2009) Functional analysis of free methionine-R-sulfoxide reductase from Saccharomyces cerevisiae. J Biol Chem., 284(7), 4354-4364. Briefly, a yeast fRMsr cDNA, which encodes a protein homologous to fRMsr from E. coli, was amplified from S. cerevisiae genomic DNA and subcloned into pET21b vector (Novagen) using primers 5′-AAACATATGATGGGCTCATCAACCGGGTTTC-3′ (sense; SEQ ID NO:1) and 5′-AAGCGGCCGCGACACATGATTTATTAATTAATTTAGCAAG-3′ (antisense; SEQ ID NO:2). After transformation into BL21 (DE3) E. coli, the subcloned sequence was verified by DNA sequencing. Cells with the plasmid in 500 mL LB medium containing 100 μg/mL ampicillin were grown until OD600 reached 0.6-0.8, followed by addition of IPTG to 0.3 mM. Protein expression was at 30° C. for 4 hours, followed by harvesting cells by centrifugation at 4,000 rpm for 5 minutes. Cells were washed with PBS and stored at −70° C. until use.
To purify the protein, a cell pellet was dissolved in resuspension buffer (Tris-HCl, pH 7.5, 15 mM imidazole, 300 mM NaCl), and PMSF was added to a final concentration of 0.5 mM. After sonication, the supernatant was collected by centrifugation at 8,000 rpm for 30 minutes. The supernatant was loaded onto a cobalt Talon resin (Clontech) pre-equilibrated with resuspension buffer. Following washing with the same buffer, the protein was eluted with elution buffer (Tris-HCl, pH 7.5, 300 mM imidazole, 300 mM NaCl). Fractions containing yeast fRMsr were pooled together and dialyzed overnight against PBS in a dialysis cassette (Pierce).
Activity assays of fRMsr—Reaction mixture (40 μL) included 50 mM DTT, 1 mM substrate (Met-RO or Met-SO), and purified enzyme or cell lysate prepared by treatment with CelLytic™M cell lysis reagent (Sigma). 20 μL of the reaction mixture was mixed with 2 μL of TCA and subjected to OPA derivatization as described above and then injected onto the column to measure endogenous Met level in the samples. An additional 20 μL from the same original reaction mixture were incubated at 37° C. for 30 minutes and then subjected to OPA derivatization by the same procedure using TCA. After derivatization of the sample (2-5 μL) by adding OPA solution to 100 μL as a final volume, 50 μL of the mixture were subjected to an HPLC separation as described above.

Row | SMILES | Growth of SK-Hep1 cells (SK-Hep1 cells) | Morphology of SK-Hep1 cells (SK-Hep1 cells) | Expression of CBS (CBS; SK-Hep1 cells) | Expression of CBS (CBS; fRMsr-expressing SK-Hep1 cells) | Activity of recombinant yeast fRMsr protein towards the substrate (yeast fRMsr) | Specific activity for each Met-O (yeast fRMsr)
1 | C[S@@+]([O-])CC[C@H](N)C(=O)O [Met-RO, methionine-R-sulfoxide] | did not support growth | long and narrow | reduced expression | normal CBS levels | ≈ 33 nmol/min/mg protein | 30015 ± 2652 pmol/min/mg
2 | C[S@+]([O-])CC[C@H](N)C(=O)O [Met-SO, methionine-S-sulfoxide] | could also proliferate | resembled those maintained in the presence of Met | CBS levels were decreased | – | inactive | ND* (A signal corresponding to specific activity less than 5 pmol/min/mg is shown as ND (Not Detectable))
